For data set [1], the system named is Staphylococcus aureus. The experiment in a line: Antibacterial activity against methicillin/gentamicin/tetracycline resistant Staphylococcus aureus ATCC 33592. Type of data set: functional.
For data set [2], the system named is Salmonella typhimurium. The experiment in a line: Antibacterial activity against Salmonella Typhimurium ATCC 13311. The class given is functional, Salmonella enterica subsp. enterica serovar Typhimurium. The settings on record: Salmonella enterica.
Data set [3] relates to Mycobacterium. The experiment in a line: Antibacterial activity against Mycobacterium ranae ATCC 110. Type of data set: functional.
Data set [4] can be described thus: Toxicity to mouse RBC assessed as hemolytic activity at 100 uM. The settings on record: red blood cells, read-out: Activity. Type of data set: cell-based, Erythrocyte.

Values after ≈ are worked out from the molar mass of the structure shown. Non-standard residues stand in square brackets, D forms with d. Residues, ends and D or L forms follow the SMILES beside them. ξ: configuration not given here. Phe(4-NO2) = N[C@@H](Cc1ccc([N+](=O)[O-])cc1)C(=O)O; Pro(3ξ,4ξ-(CH2)4) = O=C(O)[C@H]1NCC2CCCCC21; Oic = O=C(O)[C@@H]1C[C@@H]2CCCC[C@@H]2N1; Pro(3,4-benzo) = O=C(O)[C@H]1NCc2ccccc21; Tic = O=C(O)[C@@H]1Cc2ccccc2CN1; βAla = NCCC(=O)O

What is called MIC is the least concentration at which growth counts as inhibited.

Take `CC(=O)NCC(=O)N[C@@H](Cc1ccccc1)C(=O)N1Cc2ccccc2C[C@H]1C(=O)N1[C@H](C(=O)NCC(=O)N[C@H](CCCCN)C(=O)N2Cc3ccccc3C[C@H]2C(=O)N2[C@H](C(=O)NCC(=O)N[C@@H](Cc3ccccc3)C(=O)N3Cc4ccccc4C[C@H]3C(=O)N3[C@H](C(=O)NCC(=O)N[C@H](CCCCN)C(=O)N4Cc5ccccc5C[C@H]4C(=O)N[C@@H](CCCCN)C(=O)N[C@@H](CCCCN)C(=O)N[C@@H](CCCCN)C(=O)N[C@@H](CCCCN)C(N)=O)C[C@@H]4CCCC[C@@H]43)C[C@@H]3CCCC[C@@H]32)C[C@@H]2CCCC[C@@H]21` (Ac-GF[Tic][Oic]G[dK][Tic][Oic]GF[Tic][Oic]G[dK][Tic]KKKK-NH2): the MIC in data set [1], in data set [2] and in data set [3] was 10 µM (≈ 24.4 µg/mL) each time.

Take `CC(=O)NCC(=O)N[C@@H](Cc1ccc([N+](=O)[O-])cc1)C(=O)N1Cc2ccccc2C[C@H]1C(=O)N1CC2CCCCC2[C@H]1C(=O)NCC(=O)N[C@@H](CCCCN)C(=O)N1Cc2ccccc2C[C@H]1C(=O)N1CC2CCCCC2[C@H]1C(=O)NCC(=O)N[C@@H](Cc1ccc([N+](=O)[O-])cc1)C(=O)N1Cc2ccccc2C[C@H]1C(=O)N1CC2CCCCC2[C@H]1C(=O)NCC(=O)N[C@@H](CCCCN)C(=O)N1Cc2ccccc2C[C@H]1C(=O)N[C@@H](CCCCN)C(=O)N[C@@H](CCCCN)C(=O)N[C@@H](CCCCN)C(=O)N[C@@H](CCCCN)C(N)=O` (stereo partly specified) (Ac-G[Phe(4-NO2)][Tic][Pro(3ξ,4ξ-(CH2)4)]GK[Tic][Pro(3ξ,4ξ-(CH2)4)]G[Phe(4-NO2)][Tic][Pro(3ξ,4ξ-(CH2)4)]GK[Tic]KKKK-NH2): the values for the MIC in data set [1], in data set [2] and in data set [3] were 10 µM (≈ 25.3 µg/mL), 30 µM (≈ 75.9 µg/mL) and 10 µM (≈ 25.3 µg/mL), respectively.

In the case of `CC(=O)NCC(=O)N[C@H](Cc1ccccc1)C(=O)N1Cc2ccccc2C[C@H]1C(=O)N1[C@H](C(=O)NCC(=O)N[C@@H](CCCCN)C(=O)N2Cc3ccccc3C[C@H]2C(=O)N2[C@H](C(=O)NCC(=O)N[C@H](Cc3ccccc3)C(=O)N3Cc4ccccc4C[C@H]3C(=O)N3[C@H](C(=O)NCC(=O)N[C@@H](CCCCN)C(=O)N4Cc5ccccc5C[C@H]4C(=O)N[C@@H](CCCCN)C(=O)N[C@@H](CCCCN)C(=O)N[C@@H](CCCCN)C(=O)N[C@@H](CCCCN)C(N)=O)C[C@@H]4CCCC[C@@H]43)C[C@@H]3CCCC[C@@H]32)C[C@@H]2CCCC[C@@H]21` (Ac-G[dF][Tic][Oic]GK[Tic][Oic]G[dF][Tic][Oic]GK[Tic]KKKK-NH2), the MIC in data set [1] was 3 µM (≈ 7.32 µg/mL); in data set [2], 10 µM (≈ 24.4 µg/mL); in data set [3], 10 µM (≈ 24.4 µg/mL).

`CSCC[C@H](NC(=O)[C@H](CC(C)C)NC(=O)[C@H](CCC(=O)O)NC(=O)[C@@H]1c2ccccc2CN1C(=O)[C@@H]1Cc2ccccc2CN1C(=O)[C@H](Cc1ccccc1)NC(=O)CCNC(=O)[C@@H]1c2ccccc2CN1C(=O)[C@@H]1Cc2ccccc2CN1C(=O)[C@H](CCCCN)NC(=O)CCNC(=O)[C@@H]1c2ccccc2CN1C(=O)[C@@H]1Cc2ccccc2CN1C(=O)[C@H](Cc1ccccc1)NC(=O)CCNC(=O)[C@@H]1c2ccccc2CN1C(=O)[C@@H]1Cc2ccccc2CN1C(=O)[C@H](CCCCN)NC(=O)CCNC(=O)CCNC(=O)CNC(=O)[C@H](CC(C)C)NC(=O)CNC(=O)[C@H](CCCCN)NC(=O)CNC(=O)[C@@H](N)CCC(=O)O)C(=O)N[C@@H](CC(N)=O)C(=O)N[C@@H](CO)C(N)=O` (H-EGKGLG[βAla][βAla]K[Tic][Pro(3,4-benzo)][βAla]F[Tic][Pro(3,4-benzo)][βAla]K[Tic][Pro(3,4-benzo)][βAla]F[Tic][Pro(3,4-benzo)]ELMNS-NH2): the hemolysis at 100 µM in data set [4] came to 27%.

Consider `CC(C)C[C@H](NC(=O)[C@@H]1C2CCCCC2CN1C(=O)[C@@H]1Cc2ccccc2CN1C(=O)CNC(=O)[C@H](CCCCN)NC(=O)CNC(=O)[C@@H]1C2CCCCC2CN1C(=O)[C@@H]1Cc2ccccc2CN1C(=O)[C@H](CO)NC(=O)[C@H](CC(C)C)NC(=O)[C@@H](N)CCC(=O)O)C(=O)N[C@@H](CCCCN)C(=O)N[C@@H](CCC(=O)O)C(=O)N[C@@H](CO)C(N)=O` (stereo partly specified) (H-ELS[Tic][Pro(3ξ,4ξ-(CH2)4)]GKG[Tic][Pro(3ξ,4ξ-(CH2)4)]LKES-NH2), for which, in data set [4], the hemolysis at 100 µM turned out to be 23%.

On to `CSCC[C@H](NC(=O)[C@H](CC(C)C)NC(=O)[C@H](CCC(=O)O)NC(=O)[C@@H]1C[C@@H]2CCCC[C@@H]2N1C(=O)[C@@H]1Cc2ccccc2CN1C(=O)[C@H](Cc1ccccc1)NC(=O)CNC(=O)[C@@H]1C[C@@H]2CCCC[C@@H]2N1C(=O)[C@@H]1Cc2ccccc2CN1C(=O)[C@H](CCCNC(=N)N)NC(=O)CNC(=O)[C@@H]1C[C@@H]2CCCC[C@@H]2N1C(=O)[C@@H]1Cc2ccccc2CN1C(=O)[C@H](Cc1ccccc1)NC(=O)CNC(=O)[C@@H]1C[C@@H]2CCCC[C@@H]2N1C(=O)[C@@H]1Cc2ccccc2CN1C(=O)[C@H](CCCNC(=N)N)NC(=O)CNC(=O)[C@@H]1C[C@@H]2CCCC[C@@H]2N1C(=O)[C@@H]1Cc2ccccc2CN1C(=O)[C@H](CC(C)C)NC(=O)CNC(=O)[C@H](CCCCN)NC(=O)CN)C(=O)N[C@@H](CC(N)=O)C(=O)N[C@@H](CO)C(N)=O` (H-GKGL[Tic][Oic]GR[Tic][Oic]GF[Tic][Oic]GR[Tic][Oic]GF[Tic][Oic]ELMNS-NH2), for which the hemolysis at 100 µM in data set [4] worked out at 70%.

Turning to `CC(C)C[C@H](NC(=O)CNC(=O)[C@H](CCCCN)NC(=O)CN)C(=O)N1Cc2ccccc2C[C@H]1C(=O)N1[C@H](C(=O)NCC(=O)N[C@@H](CCCNC(=N)N)C(=O)N2Cc3ccccc3C[C@H]2C(=O)N2[C@H](C(=O)NCC(=O)N[C@@H](Cc3ccccc3)C(=O)N3Cc4ccccc4C[C@H]3C(=O)N3[C@H](C(=O)NCC(=O)N[C@@H](CCCNC(=N)N)C(=O)N4Cc5ccccc5C[C@H]4C(=O)N4[C@H](C(=O)NCC(=O)N[C@@H](Cc5ccccc5)C(=O)N5Cc6ccccc6C[C@H]5C(=O)N5[C@H](C(=O)NCC(=O)N[C@@H](CCCNC(=N)N)C(=O)N6Cc7ccccc7C[C@H]6C(=O)N6[C@H](C(=O)NCC(=O)N[C@@H](CCCCN)C(=O)N[C@@H](CCCNC(=N)N)C(N)=O)C[C@@H]7CCCC[C@@H]76)C[C@@H]6CCCC[C@@H]65)C[C@@H]5CCCC[C@@H]54)C[C@@H]4CCCC[C@@H]43)C[C@@H]3CCCC[C@@H]32)C[C@@H]2CCCC[C@@H]21` (H-GKGL[Tic][Oic]GR[Tic][Oic]GF[Tic][Oic]GR[Tic][Oic]GF[Tic][Oic]GR[Tic][Oic]GKR-NH2), the hemolysis at 100 µM in data set [4] is 100%.

Consider `CSCC[C@H](NC(=O)[C@H](CC(C)C)NC(=O)[C@H](CCC(=O)O)NC(=O)[C@@H]1C[C@@H]2CCCC[C@@H]2N1C(=O)[C@@H]1Cc2ccccc2CN1C(=O)[C@H](Cc1ccccc1)NC(=O)CCNC(=O)[C@@H]1C[C@@H]2CCCC[C@@H]2N1C(=O)[C@@H]1Cc2ccccc2CN1C(=O)[C@H](CCCCN)NC(=O)CCNC(=O)[C@@H]1C[C@@H]2CCCC[C@@H]2N1C(=O)[C@@H]1Cc2ccccc2CN1C(=O)[C@H](Cc1ccccc1)NC(=O)CCNC(=O)[C@@H]1C[C@@H]2CCCC[C@@H]2N1C(=O)[C@@H]1Cc2ccccc2CN1C(=O)[C@H](CCCCN)NC(=O)CCNC(=O)[C@@H]1C[C@@H]2CCCC[C@@H]2N1C(=O)[C@@H]1Cc2ccccc2CN1C(=O)[C@H](CC(C)C)NC(=O)CNC(=O)[C@H](CCCCN)NC(=O)CN)C(=O)N[C@@H](CC(N)=O)C(=O)N[C@@H](CO)C(N)=O` (H-GKGL[Tic][Oic][βAla]K[Tic][Oic][βAla]F[Tic][Oic][βAla]K[Tic][Oic][βAla]F[Tic][Oic]ELMNS-NH2), for which the hemolysis at 100 µM in data set [4] is 55%.

As for `CC(C)C[C@H](NC(=O)CNC(=O)[C@H](CCCCN)NC(=O)CN)C(=O)N1Cc2ccccc2C[C@H]1C(=O)N1CC2CCCCC2[C@H]1C(=O)N[C@@H](Cc1ccccc1)C(=O)N[C@@H](CCCCN)C(=O)N1Cc2ccccc2C[C@H]1C(=O)N1CC2CCCCC2[C@H]1C(=O)N[C@@H](CCCCN)C(=O)N[C@@H](Cc1ccccc1)C(=O)N1Cc2ccccc2C[C@H]1C(=O)N1CC2CCCCC2[C@H]1C(=O)N[C@@H](Cc1ccccc1)C(=O)N[C@@H](CCCCN)C(=O)N1Cc2ccccc2C[C@H]1C(=O)N1CC2CCCCC2[C@H]1C(=O)N[C@@H](CCCCN)C(=O)N[C@@H](Cc1ccccc1)C(=O)N1Cc2ccccc2C[C@H]1C(=O)N1CC2CCCCC2[C@H]1C(=O)N[C@@H](Cc1ccccc1)C(=O)N[C@@H](CCCCN)C(=O)N1Cc2ccccc2C[C@H]1C(=O)N1CC2CCCCC2[C@H]1C(=O)N[C@@H](Cc1ccccc1)C(=O)N[C@@H](CCCCN)C(=O)N[C@@H](CCCNC(=N)N)C(N)=O` (stereo partly specified) (H-GKGL[Tic][Pro(3ξ,4ξ-(CH2)4)]FK[Tic][Pro(3ξ,4ξ-(CH2)4)]KF[Tic][Pro(3ξ,4ξ-(CH2)4)]FK[Tic][Pro(3ξ,4ξ-(CH2)4)]KF[Tic][Pro(3ξ,4ξ-(CH2)4)]FK[Tic][Pro(3ξ,4ξ-(CH2)4)]FKR-NH2), in data set [4], the hemolysis at 100 µM came out at 100%.

As to `CC(C)C[C@H](NC(=O)CNC(=O)[C@H](CCCCN)NC(=O)CN)C(=O)N1Cc2ccccc2C[C@H]1C(=O)N1CC2CCCCC2[C@H]1C(=O)NCC(=O)N[C@@H](CCCCN)C(=O)N1Cc2ccccc2C[C@H]1C(=O)N1CC2CCCCC2[C@H]1C(=O)NCC(=O)N[C@@H](Cc1ccccc1)C(=O)N1Cc2ccccc2C[C@H]1C(=O)N1CC2CCCCC2[C@H]1C(=O)NCC(=O)N[C@@H](CCCCN)C(=O)N1Cc2ccccc2C[C@H]1C(=O)N1CC2CCCCC2[C@H]1C(=O)NCC(=O)N[C@@H](Cc1ccccc1)C(=O)N1Cc2ccccc2C[C@H]1C(=O)N1CC2CCCCC2[C@H]1C(=O)NCC(=O)N[C@@H](CCCCN)C(=O)N1Cc2ccccc2C[C@H]1C(=O)N1CC2CCCCC2[C@H]1C(=O)NCC(=O)N[C@@H](CCCCN)C(=O)N[C@@H](CCCNC(=N)N)C(N)=O` (stereo partly specified) (H-GKGL[Tic][Pro(3ξ,4ξ-(CH2)4)]GK[Tic][Pro(3ξ,4ξ-(CH2)4)]GF[Tic][Pro(3ξ,4ξ-(CH2)4)]GK[Tic][Pro(3ξ,4ξ-(CH2)4)]GF[Tic][Pro(3ξ,4ξ-(CH2)4)]GK[Tic][Pro(3ξ,4ξ-(CH2)4)]GKR-NH2), the hemolysis at 100 µM in data set [4] is 33.4%.

These data come from ChEMBL document CHEMBL1145395, “De novo design of selective antibiotic peptides by incorporation of unnatural amino acids” (J Med Chem, 2007).
